Laboratory results from patent US20060135568A1, “Methods of treating microbial infections in humans and animals” (priority 2002, published 2006).
“Also recorded” adds a separate entry of the source.

Tested on: b-subunit of ATP synthase (atpF, Rv1306) and hsp (Rv0251c)
Assay type: cell-based, M. bovis BCG (Pasteur strain, ATCC 35734)

| Compound | overexpression of hsp and b-subunit of ATP synthase on 2-D gels | time to overexpression of both proteins post exposure [h] |
| --- | --- | --- |
| C/C=C/C/C=C/CCC(=O)[C@H]1O[C@H]1C(N)=O [cerulenin] | Neither; also recorded: failed to result in overexpression |  |
| NNC(=O)c1ccncc1 [INH, isoniazid] | Neither; also recorded: failed to result in overexpression |  |
| CCCCCCCCS(=O)(=O)CC(N)=O [OSA, n-octanesulfonylacetamide] | significant overexpression | ≤ 3.5 |
